Measurements taken from ChEMBL document CHEMBL5143656, “Polyphenolic compounds: Synthesis, assessment of antimicrobial effect and enzymes inhibition against important medicinal enzymes with computational details” (Bioorg Med Chem Lett, 2022).
≈ marks a conversion by molar mass, not a printed value.

Assays:
[1] = tested on: Cyberlindnera jadinii; assay: Antimicrobial activity Candida utilis against incubated for 24 hrs; format: functional; conditions: Williopsis jadinii
[2] = tested on: Candida albicans; assay: Antimicrobial activity Candida albicans against incubated for 24 hrs; format: functional
[3] = target: Cholinesterase (Homo sapiens, UniProt P06276); assay: Inhibition of BChE (unknown origin) using […] as substrate incubated for 10 mins by Ellman's method
Chain of Cholinesterase (P06276 whole entry): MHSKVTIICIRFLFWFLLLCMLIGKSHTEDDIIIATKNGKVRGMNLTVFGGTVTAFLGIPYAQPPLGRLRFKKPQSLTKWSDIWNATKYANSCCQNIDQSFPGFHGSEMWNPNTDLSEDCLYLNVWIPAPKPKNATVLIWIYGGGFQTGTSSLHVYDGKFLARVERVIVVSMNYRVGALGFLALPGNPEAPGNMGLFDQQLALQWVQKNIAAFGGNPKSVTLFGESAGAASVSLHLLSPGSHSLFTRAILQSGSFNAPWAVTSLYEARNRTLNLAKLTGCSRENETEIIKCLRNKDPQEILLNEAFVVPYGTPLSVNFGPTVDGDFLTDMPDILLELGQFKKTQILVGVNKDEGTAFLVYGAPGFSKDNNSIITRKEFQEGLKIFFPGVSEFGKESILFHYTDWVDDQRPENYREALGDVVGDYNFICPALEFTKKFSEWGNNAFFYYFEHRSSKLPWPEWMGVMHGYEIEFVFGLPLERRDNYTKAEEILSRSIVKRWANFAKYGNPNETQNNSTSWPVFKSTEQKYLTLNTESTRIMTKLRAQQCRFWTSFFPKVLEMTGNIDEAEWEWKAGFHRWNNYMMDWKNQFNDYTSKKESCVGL

[4] = tested on: PC-3; assay: Cytotoxicity in human PC3 cells assessed as reduction in cell viability incubated for 24 hrs by MTT assay; format: functional, cell-based; conditions: PC-3, 24 h
[5] = tested on: Klebsiella pneumoniae; assay: Antimicrobial activity Klebsiella pneumoniae against incubated for 24 hrs; format: functional
[6] = tested on: Staphylococcus aureus; assay: Antimicrobial activity Staphylococcus aureus against incubated for 24 hrs; format: functional
[7] = target: Acetylcholinesterase (Homo sapiens, UniProt P22303); assay: Inhibition of AChE (unknown origin) using […] as substrate incubated for 10 mins by Ellman's method
Chain of Acetylcholinesterase (P22303 whole entry): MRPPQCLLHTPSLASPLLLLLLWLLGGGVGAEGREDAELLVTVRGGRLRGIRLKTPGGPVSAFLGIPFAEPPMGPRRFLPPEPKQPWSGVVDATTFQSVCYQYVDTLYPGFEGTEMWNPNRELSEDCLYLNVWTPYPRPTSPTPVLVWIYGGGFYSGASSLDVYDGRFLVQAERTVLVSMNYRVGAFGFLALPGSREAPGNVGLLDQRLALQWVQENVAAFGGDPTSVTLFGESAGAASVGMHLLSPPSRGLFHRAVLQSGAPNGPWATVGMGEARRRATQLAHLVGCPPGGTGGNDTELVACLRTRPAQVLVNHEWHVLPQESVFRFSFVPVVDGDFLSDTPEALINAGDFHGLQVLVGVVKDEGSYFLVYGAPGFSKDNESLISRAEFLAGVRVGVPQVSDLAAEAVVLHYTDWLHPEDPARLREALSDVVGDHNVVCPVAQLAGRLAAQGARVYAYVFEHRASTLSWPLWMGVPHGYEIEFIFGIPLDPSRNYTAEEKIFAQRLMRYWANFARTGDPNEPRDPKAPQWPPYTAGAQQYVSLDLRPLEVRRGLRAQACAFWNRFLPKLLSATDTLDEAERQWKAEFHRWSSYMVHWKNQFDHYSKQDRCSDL

[8] = tested on: Enterococcus faecalis; assay: Antimicrobial activity Enterococcus faecalis against incubated for 24 hrs; format: functional
[9] = target: T1, Tyrosinase (Homo sapiens, UniProt P14679); assay: Inhibition of tyrosinase (unknown origin) using L-DOPA as substrate incubated for 10 mins
T1 sequence (P14679 whole entry): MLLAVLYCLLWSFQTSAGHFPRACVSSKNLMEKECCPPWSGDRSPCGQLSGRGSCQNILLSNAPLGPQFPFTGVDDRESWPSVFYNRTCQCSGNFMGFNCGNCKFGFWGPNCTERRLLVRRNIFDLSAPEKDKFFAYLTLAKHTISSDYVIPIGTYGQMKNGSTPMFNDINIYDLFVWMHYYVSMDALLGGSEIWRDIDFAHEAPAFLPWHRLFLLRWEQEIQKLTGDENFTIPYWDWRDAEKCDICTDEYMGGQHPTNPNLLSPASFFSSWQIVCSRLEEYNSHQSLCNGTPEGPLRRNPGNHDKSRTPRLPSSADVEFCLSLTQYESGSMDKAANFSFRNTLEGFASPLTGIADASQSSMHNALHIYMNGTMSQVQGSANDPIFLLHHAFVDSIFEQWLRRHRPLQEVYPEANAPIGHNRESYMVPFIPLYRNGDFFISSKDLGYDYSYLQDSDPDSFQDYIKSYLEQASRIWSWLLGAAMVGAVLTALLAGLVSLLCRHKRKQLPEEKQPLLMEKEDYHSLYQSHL

[10] = tested on: Escherichia coli; assay: Antimicrobial activity Escherichia coli against incubated for 24 hrs; format: functional
[11] = target: T1, Tyrosinase; assay: Inhibition of tyrosinase (unknown origin)

| IC50 [11] [µM] | SMILES | MIC [1] [µg/mL] | MIC [2] [µg/mL] | IC50 [3] [µM] | IC50 [4] [µg/mL] | MIC [5] [µg/mL] | MIC [6] [µg/mL] | IC50 [7] [µM] | MIC [8] [µg/mL] | IC50 [9] [µM] | MIC [10] [µg/mL] |
| --- | --- | --- | --- | --- | --- | --- | --- | --- | --- | --- | --- |
|  | CCC(c1ccc(O)c(OC)c1)c1cccc(O)c1O (stereo not drawn) | 467 (≈ 1700 µM) | 448 (≈ 1630 µM) | 2.82 | 16.1 (≈ 58.9 µM) | 277 (≈ 1010 µM) | 284 (≈ 1040 µM) | 5.66 | 369 (≈ 1350 µM) | 2.32 | 181 (≈ 659 µM) |
|  | CCC(c1ccc(O)c(OC)c1)c1ccc(OC)cc1O (stereo not drawn) | 249 (≈ 864 µM) | 220 (≈ 761 µM) | 2.25 | 12.2 (≈ 42.2 µM) | 204 (≈ 707 µM) | 184 (≈ 638 µM) | 4.76 | 112 (≈ 389 µM) | 2.83 | 269 (≈ 933 µM) |
| 65.1 | O=c1c(O)c(-c2ccc(O)cc2)oc2cc(O)cc(O)c12 [KAEMPFEROL] |  |  |  |  |  |  |  |  |  |  |
| 78.5 | O=C(/C=C/c1ccc(O)cc1)OC[C@H]1O[C@@H](Oc2c(-c3ccc(O)cc3)oc3cc(O)cc(O)c3c2=O)[C@H](O)[C@@H](O)[C@@H]1O [TILIROSIDE] |  |  |  |  |  |  |  |  |  |  |

| SMILES | IC50 [11] [µM] | MIC [1] [µg/mL] | MIC [2] [µg/mL] | IC50 [3] [µM] | IC50 [4] [µg/mL] | MIC [5] [µg/mL] | MIC [6] [µg/mL] | IC50 [7] [µM] | MIC [8] [µg/mL] | IC50 [9] [µM] | MIC [10] [µg/mL] |
| --- | --- | --- | --- | --- | --- | --- | --- | --- | --- | --- | --- |
| O=c1c(O)c(-c2ccc(O)c(O)c2)oc2cc(O)cc(O)c12 [QUERCETIN] | […] |  |  |  |  |  |  |  |  |  |  |
